The text below walks through data of US20250188118A1, “LIQUID PHASE PEPTIDE SYNTHESIS METHODS” (AMGEN INC., priority 2023, published 2025).

Data set [1] can be described thus: C18 tag solubility in screening solvents (slurry agitated overnight, supernatant assayed by calibrated HPLC). It counts as physicochemical. To be noted: organic solvent or mixture, thermodynamic from solid, 20 °C. As to the method: Provided in this section is an analysis of the solubility of the C18 tag in various organic solvents. All starting materials are either commercially available from Sigma-Aldrich, Oakwood Chemicals, ChemPep Inc., CombiBlocks, or similar vendors, unless otherwise noted, or known in the art and may be synthesized by employing known procedures using ordinary skill.
(3,4,5-trioctadecoxyphenyl)methanol (200 mg) was measured out into a series of 1-dram vials. 1 mL of a screening solvent was added to its corresponding 1-dram vial. The slurry vials were placed on a shaker plate set to 20° C. and agitated overnight. Following agitation, the slurries were transferred to centrifuge tubes and the supernatant was isolated. 100 μL of the isolated supernatant was diluted in 10 mL THF to provides solutions for HPLC analysis using the Agilent 1290 Infinity II system with a Cortecs UPLC C8 1.6 μm 2, 1×150 mm column with a dilution factor of 100. A typical run through the HPLC instrument used a column temperature of 30° C.; an injection volume of 1 μL; a method length of 15 min; a flow rate of 0.3 mL/min; UV Detection: 220 nm; Mobile Phase A: 0.1% TFA in water; Mobile Phase B: 0.1% TFA in ACN; HPLC Gradient: 0 min—95:5 (A:B), 10 min—5:95 (A:B), 13 min—95:5 (A:B). The sample solutions were assayed on a calibrated LC system, and the corresponding C18 tag concentrations are reported below.

For data set [2] the following is noted: in water at 23° C.; cited from earlier work.

≈ marks a conversion by molar mass, not a printed value. Bounds are passed on as bounds.

By solubility is commonly meant the concentration that dissolves in the medium under given conditions.

Consider `CCCCCCCCCCCCCCCCCCOc1cc(CO)cc(OCCCCCCCCCCCCCCCCCC)c1OCCCCCCCCCCCCCCCCCC` [C18 Tag, (3,4,5-trioctadecoxyphenyl)methanol], for which the solubility in data set [1] (solvent 2-Me-THF) was 172 mg/mL (≈ 189 mM); in data set [1] (solvent CPME), 6.8 mg/mL (≈ 7.44 mM); in data set [1] (solvent Heptanes) it was 1.63 mg/mL (≈ 1.78 mM); in data set [1] (solvent MTBE), 43.8 mg/mL (≈ 48 mM); in data set [1] (solvent PhMe) it was 57.8 mg/mL (≈ 63.3 mM); in data set [1] (solvent THF), ≥ 200 mg/mL. Also, the solubility in data set [1] (solvent iPrOAc) amounted to 1.81 mg/mL (≈ 1.98 mM).
For `CC1CCCO1` (centres unmarked) [Example 2-MeTHF, 2-methyltetrahydrofuran], the miscibility in water in data set [2] is on record as 14 g/100 g.
